# Assays:
# [1] = system: Staphylococcus aureus (S. aureus) 11540 strain; assay: standard microdilution assay to determine minimum inhibitory concentrations (MICs), S. aureus; format: cell-based
# Description: (§1) The in vitro activity of the compounds of the present disclosure can be determined. Antimicrobial testing is typically performed to determine the minimum inhibitory concentration (MIC). Minimum inhibitory concentrations (MICs) are determined by the microdilution method in a final volume of 100 μl according to protocols outlined by The Clinical and Laboratory Standards Institute (CLSI). Performance standards for reference strains are assessed within the same experimental design to maintain quality control. See, for example, Clinical Laboratory Standards Institute: Methods for dilution antimicrobial susceptibility tests for bacteria that grow aerobically M7-A8. Approved Standard-Eighth Edition. Wayne, PA: CLSI; December 2008: and Clinical Laboratory Standards Institute: Performance Standards for Antimicrobial Susceptibility Testing M100-S20; Approved Standard-Twentieth Edition. Wayne, PA: CLSI; June 2010. The compounds of the present disclosure were tested for antimicrobial activity. The Compounds 1-122 were run against Eschericia coli (E. coli) strain ATCC25922 and against Staphylococcus aureus (S. aureus) 11540 strain using a standard microdilution assay to determine minimum inhibitory concentrations (MICs). […] It will be recognized by one skilled in the art that the compounds can be assessed against other bacterial organisms and that the presentation of data for activity against Eschericia coli and Staphylococcus aureus are illustrative and in no way is intended to limit the scope of the present disclosure. The compounds of the present disclosure can be assayed against a range of other microorganisms depending upon the performance activity desired to be gathered. Furthermore, the “+” and “−” representation and the selection of a cutoff value of 16 micrograms/mL is also illustrative and in no way is intended to limit the scope of the present disclosure.
# [2] = system: Eschericia coli (E. coli) strain ATCC25922; assay: standard microdilution assay to determine minimum inhibitory concentrations (MICs), E. coli; format: cell-based; conditions: Escherichia coli
# Description: as §1
Compound,MIC [1] [µg/mL],MIC [2] [µg/mL]
N=C(N)SCC[C@@H]1CCC[C@@H](c2ccc(-n3cc4cc(-c5cc(CCC[C@@H](N)C6CC6)cc(Cl)c5F)[nH]c4nc3=O)cc2)N1 [Compound 1],≤ 16,≤ 16
C[C@H](N)CCCc1cc(Cl)c(F)c(-c2cc3cn(-c4ccc([C@@H]5CCC[C@@H](CCSC6=NCCN6)N5)cc4)c(=O)nc3[nH]2)c1 [Compound 2],≤ 16,≤ 16
N[C@H](CCCc1cc(Cl)c(F)c(-c2cc3cn(-c4ccc([C@@H]5CCC[C@@H](CCSC6=NCCN6)N5)cc4)c(=O)nc3[nH]2)c1)C1CC1 [Compound 3],≤ 16,≤ 16
C[C@H](N)CCCc1cc(Cl)c(F)c(-c2cc3cn(-c4ccc([C@@H]5CCC[C@@H](CCSC(=N)N)N5CCCF)cc4)c(=O)nc3[nH]2)c1 [Compound 4],≤ 16,≤ 16
N=C(N)SCC[C@@H]1CCC[C@@H](c2ccc(-n3cc4cc(-c5cc(CCC[C@@H](N)C6CC6)cc(Cl)c5F)[nH]c4nc3=O)cc2)N1CCCF [Compound 5],≤ 16,≤ 16
C[C@H](N)CCCc1cc(Cl)c(F)c(-c2cc3cn(-c4ccc([C@@H]5CCC[C@@H](CCSC(=N)N)N5CCCO)cc4)c(=O)nc3[nH]2)c1 [Compound 6],≤ 16,≤ 16
N=C(N)SCC[C@@H]1CCC[C@@H](c2ccc(-n3cc4cc(-c5cc(CCC[C@@H](N)C6CC6)cc(Cl)c5F)[nH]c4nc3=O)cc2)N1CCCO [Compound 7],≤ 16,≤ 16
N=C(N)SCC[C@@H]1CCC[C@@H](c2ccc(-n3cc4cc(-c5cc(CCC[C@@H](N)CO)cc(Cl)c5F)[nH]c4nc3=O)cc2)N1 [Compound 8],≤ 16,≤ 16
C[C@H](N)CCCc1cc(Cl)c(F)c(-c2cc3cn(-c4ccc([C@H](C)NCCCSC(=N)N)cc4)c(=O)nc3[nH]2)c1 [Compound 9],≤ 16,≤ 16
N=C(N)SCC[C@@H]1CCC[C@@H](c2ccc(-n3cc4cc(-c5cc(CCC[C@@H](N)COC(=O)c6ccccc6)cc(Cl)c5F)[nH]c4nc3=O)cc2)N1 [Compound 10],≤ 16,≤ 16
C[C@H](NCC[C@H](C)SC(=N)N)c1ccc(-n2cc3cc(-c4cc(CCC[C@@H](N)C5CC5)cc(Cl)c4F)[nH]c3nc2=O)cc1 [Compound 11],≤ 16,≤ 16
C[C@H](N)CCCc1cc(Cl)c(F)c(-c2cc3cn(-c4ccc([C@@H]5CCCCN5CCCSC(=N)N)cc4)c(=O)nc3[nH]2)c1 [Compound 12],≤ 16,≤ 16
N=C(N)SCCCN1CCCC[C@H]1c1ccc(-n2cc3cc(-c4cc(CCC[C@@H](N)C5CC5)cc(Cl)c4F)[nH]c3nc2=O)cc1 [Compound 13],≤ 16,≤ 16
C[C@H](N)CCCc1cc(Cl)c(F)c(-c2cc3cn(-c4ccc([C@@H]5CC=CCN5CCCSC(=N)N)cc4)c(=O)nc3[nH]2)c1 [Compound 14],≤ 16,≤ 16
N=C(N)SCCCN1CC=CC[C@H]1c1ccc(-n2cc3cc(-c4cc(CCC[C@@H](N)C5CC5)cc(Cl)c4F)[nH]c3nc2=O)cc1 [Compound 15],≤ 16,≤ 16
C[C@H](N)CCCc1cc(Cl)c(F)c(-c2cc3cn(-c4ccc([C@@H]5CC=C[C@@H](CCSC(=N)N)N5)cc4)c(=O)nc3[nH]2)c1 [Compound 16],≤ 16,≤ 16
C[C@H](N)CCCc1cc(Cl)c(F)c(-c2cc3cn(-c4ccc([C@@H]5CCC[C@@H](CCO)N5CCCSC(=N)N)cc4)c(=O)nc3[nH]2)c1 [Compound 17],≤ 16,≤ 16
N=C(N)SCCCN1[C@H](CCO)CCC[C@H]1c1ccc(-n2cc3cc(-c4cc(CCC[C@@H](N)C5CC5)cc(Cl)c4F)[nH]c3nc2=O)cc1 [Compound 18],≤ 16,≤ 16
C[C@H](N)CCCc1cc(Cl)c(F)c(-c2cc3cn(-c4ccc([C@@H]5CCC[C@@H](CCSC(=N)N)N5CCCSC(=N)N)cc4)c(=O)nc3[nH]2)c1 [Compound 19],≤ 16,≤ 16
N=C(N)SCCCN1[C@H](CCSC(=N)N)CCC[C@H]1c1ccc(-n2cc3cc(-c4cc(CCC[C@@H](N)C5CC5)cc(Cl)c4F)[nH]c3nc2=O)cc1 [Compound 20],≤ 16,≤ 16
C[C@H](N)CCCc1cc(Cl)c(F)c(-c2cc3cn(-c4ccc([C@@H]5CCC[C@@H](CCSC(=N)N)N5)c(F)c4)c(=O)nc3[nH]2)c1 [Compound 21],≤ 16,≤ 16
N=C(N)SCC[C@@H]1CCC[C@@H](c2ccc(-n3cc4cc(-c5cc(CCC[C@@H](N)CO)cc(Cl)c5F)[nH]c4nc3=O)cc2F)N1 [Compound 22],≤ 16,≤ 16

Compound,MIC [1] [µg/mL],MIC [2] [µg/mL]
C[C@H](N)Cc1cc(Cl)c(F)c(-c2cc3cn(-c4ccc([C@@H]5CCC[C@@H](CCSC(=N)N)N5)cc4)c(=O)nc3[nH]2)c1 [Compound 23],≤ 16,≤ 16
C[C@@H](N)Cc1cc(Cl)c(F)c(-c2cc3cn(-c4ccc([C@@H]5CCC[C@@H](CCSC(=N)N)N5)cc4)c(=O)nc3[nH]2)c1 [Compound 24],≤ 16,≤ 16
N=C(N)SCC[C@@H]1CCC[C@@H](c2ccc(-n3cc4cc(-c5cc(CCC[C@@H](N)C6CC6)cc(Cl)c5F)[nH]c4nc3=O)cc2F)N1 [Compound 25],≤ 16,≤ 16
C[C@H](N)CCCc1cc(Cl)c(F)c(-c2cc3cn(-c4ccc([C@H](C)NCC[C@H](C)SC(=N)N)cc4)c(=O)nc3[nH]2)c1 [Compound 26],≤ 16,≤ 16
C[C@H](NCCCSC(=N)N)c1ccc(-n2cc3cc(-c4cc(CCC[C@@H](N)C5CC5)cc(Cl)c4F)[nH]c3nc2=O)cc1 [Compound 27],≤ 16,≤ 16
C[C@H](O)CCCc1cc(Cl)c(F)c(-c2cc3cn(-c4ccc([C@@H]5CCC[C@@H](CCSC(=N)N)N5)cc4)c(=O)nc3[nH]2)c1 [Compound 28],≤ 16,≤ 16
C[C@@H](N)CCc1cc(Cl)c(F)c(-c2cc3cn(-c4ccc([C@@H]5CCC[C@@H](CCSC(=N)N)N5)cc4)c(=O)nc3[nH]2)c1 [Compound 29],≤ 16,≤ 16
C[C@H](O)CNCc1cc(Cl)c(F)c(-c2cc3cn(-c4ccc([C@@H]5CCC[C@@H](CCSC(=N)N)N5)cc4)c(=O)nc3[nH]2)c1 [Compound 30],≤ 16,≤ 16
C[C@H](N)CCCN1CCCC1c1cc2cn(-c3ccc([C@@H]4CCC[C@@H](CCSC(=N)N)N4)cc3)c(=O)nc2[nH]1 (some centres unmarked) [Compound 31],≤ 16,≤ 16
C[C@H](N)CCCN1CCCCC1c1cc2cn(-c3ccc([C@@H]4CCC[C@@H](CCSC(=N)N)N4)cc3)c(=O)nc2[nH]1 (some centres unmarked) [Compound 33],≤ 16,≤ 16
N=C(N)SCC[C@@H]1CCC[C@@H](c2ccc(-n3cc4cc(-c5cc(CCC[C@@H](N)COc6ccccc6)cc(Cl)c5F)[nH]c4nc3=O)cc2)N1 [Compound 35],≤ 16,≤ 16
C=C[C@H](N)CCCc1cc(Cl)c(F)c(-c2cc3cn(-c4ccc([C@@H]5CCC[C@@H](CCSC(=N)N)N5)c(F)c4)c(=O)nc3[nH]2)c1 [Compound 36],≤ 16,≤ 16
C[C@H](N)CCc1cc(Cl)c(F)c(-c2cc3cn(-c4ccc([C@@H]5CCC[C@@H](CCSC(=N)N)N5)cc4)c(=O)nc3[nH]2)c1 [Compound 37],≤ 16,≤ 16
C[C@@H](O)CNCc1cc(Cl)c(F)c(-c2cc3cn(-c4ccc([C@@H]5CCC[C@@H](CCSC(=N)N)N5)cc4)c(=O)nc3[nH]2)c1 [Compound 38],≤ 16,≤ 16
COc1ccc(OC[C@H](N)CCCc2cc(Cl)c(F)c(-c3cc4cn(-c5ccc([C@@H]6CCC[C@@H](CCSC(=N)N)N6)cc5)c(=O)nc4[nH]3)c2)cc1 [Compound 39],≤ 16,≤ 16
Cc1ccccc1OC[C@H](N)CCCc1cc(Cl)c(F)c(-c2cc3cn(-c4ccc([C@@H]5CCC[C@@H](CCSC(=N)N)N5)cc4)c(=O)nc3[nH]2)c1 [Compound 40],≤ 16,≤ 16
CNC(=N)SCC[C@@H]1CCC[C@@H](c2ccc(-n3cc4cc(-c5cc(CCC[C@H](C)N)cc(Cl)c5F)[nH]c4nc3=O)cc2)N1 [Compound 41],≤ 16,≤ 16
C[C@H](N)CCCc1cc(Cl)c(F)c(-c2cc3cn(-c4ccc([C@@H]5CCC[C@@H](CCSC(=N)N)N5C)cc4)c(=O)nc3[nH]2)c1 [Compound 42],≤ 16,≤ 16
C/N=C(\NC)SCC[C@@H]1CCC[C@@H](c2ccc(-n3cc4cc(-c5cc(CCC[C@H](C)N)cc(Cl)c5F)[nH]c4nc3=O)cc2)N1 [Compound 43],≤ 16,≤ 16
C[C@H](N)CCCc1cc(Cl)c(F)c(-c2cc3cn(-c4ccc([C@@H]5CCC[C@@H](CCSC(=N)N(C)C)N5)cc4)c(=O)nc3[nH]2)c1 [Compound 44],≤ 16,≤ 16
C=C[C@H](N)CCCc1cc(Cl)c(F)c(-c2cc3cn(-c4ccc([C@@H]5CCC[C@@H](CCSC(=N)N)N5)cc4)c(=O)nc3[nH]2)c1 [Compound 45],≤ 16,≤ 16

# — patent publication US12234238B2, “Antimicrobial compounds and methods of making and using the same” (BIOVERSYS AG, priority 2017, dated 2025)
